Assay results from the NIST ThermoML archive (doi:10.1021/je300202z).
Several values for one entry are separate records, joined by “and”; a condition that tells them apart may be missing. Equal entries are not always repeated. Numbers after ± are expanded uncertainties.

Conditions: Liquid, Ebulliometric method (Recirculating still)

SMILES | vapor or sublimation pressure (388.6 K) [kPa] | vapor or sublimation pressure (396.1 K) [kPa] | vapor or sublimation pressure (400.4 K) [kPa] | vapor or sublimation pressure (402.3 K) [kPa] | vapor or sublimation pressure (404.2 K) [kPa] | vapor or sublimation pressure (407.5 K) [kPa] | vapor or sublimation pressure (407.8 K) | vapor or sublimation pressure (408.2 K) [kPa] | vapor or sublimation pressure (416.7 K) [kPa] | vapor or sublimation pressure (421.5 K) [kPa] | vapor or sublimation pressure (423.7 K) [kPa] | vapor or sublimation pressure (425.8 K) [kPa] | vapor or sublimation pressure (428.8 K) | vapor or sublimation pressure (429.7 K) [kPa]
CCOCCO [2-ethoxyethan-1-ol] | 53.33 ± 2.4 | 69.33 ± 2.5 | 80 ± 2.8 | 85.33 ± 3 | 90.66 ± 3.2 | 100.93 ± 3.3 | 101.33 ± 3.1 kPa and 100.93 ± 5.6 kPa |  |  |  |  |  |  | 
CCOCCOC(C)=O [2-ethoxyethyl ethanoate] |  |  |  |  |  |  |  | 53.33 ± 2.1 | 69.33 ± 2.2 | 80 ± 2.5 | 85.33 ± 2.7 | 90.66 ± 3.3 | 101.33 ± 3.7 kPa and 100.93 ± 5.5 kPa | 100.93 ± 2.8
